One may read the viability, T/C as the result in the treated group divided by that in the control group, in per cent. As a reminder, the IC50 is the point on the concentration scale where inhibition reaches its midpoint.

Among the data in PubChem BioAssay AID1963434 (Molecular Pharmacology Branch, DTP, NCI, 2024) are viability, T/C and IC50 values, retold here.

The experiment relates to 755483-174-R-J1-PDC complex spheroid growth, percent test/control. Kind of experiment: Anticancer human tumor 755483-174-R-J1-PDC patient-derived rhabdomyosarcoma cell line growth inhibition [Asc]. Particulars: for viability, T/C: stronger effect = lower value. The procedure:
Multicellular complex tumor spheroid response to apoptosis pathway targeting inhibitors Alrizomadlin, Pelcitoclax, and Dasminapant in combination with a variety of drugs and investigational agents in selected tumor cell lines
The MDM2 inhibitor alrizomadlin, the Bcl-2/Bcl-xL inhibitor pelcitoclax, and the IAPs inhibitor dasminapant were evaluated both individually and in combination with standard of care and investigational anticancer small molecules within a complex spheroid model of solid tumors. . Complex spheroids include a stromal component modeled by human endothelial cells (HUVEC) and fibroblasts modeled by human mesenchymal stem cells (MSCs). The concentration ranges selected for each drug and investigational agent were based upon clinically achievable concentrations if the clinical Cmax of the agent was known.
Compounds. The drugs and investigational agents: alrizomadlin (APG-115; NSC831270), pelcitoclax (APG-1252; NSC835773), dasminapant (APG-1387;NSC834197), TAK-243 (NSC785004), copanlisib (NSC809693), olaparib (NSC753686), talazoparib (NSC767125), cobimetinib (NSC 768068), eltanexor (KPT-8602, NSC 794443), abemaciclib (NSC 768073), sotorasib (NSC818433), adagrasib (NSC 831453), MRTX-1133 (NSC 836407), Iadademestat (ORY1001, NSC 806812), and RMC-4630 (NSC839698), were obtained from the NCI Developmental Therapeutics Program Chemical Repository. The FDA-approved anticancer drug set is available from the Developmental Therapeutics Program at https://dtp.cancer.gov/organization/dscb/obtaining/available plates.htm. […] The stock solutions were prepared in dimethyl sulfoxide (DMSO, Sigma-Aldrich, St. Louis, MO, cat. D2650) at 800-fold the tested concentration and stored at -70 degrees C prior to their use. All drugs and investigational agents were tested over a range starting from a high concentration at or near the clinical Cmax and decreasing in half-log increments. If the clinical Cmax for an agent had not been determined, the highest concentration tested was 10 microM.
The patient-derived cancer (PDC) cell lines include five colon adenocarcinomas: 186277-243-T-J2-PDC, 616215-338-R-J1-PDC, 439559-082-T-J2-PDC, 463943-066-T-J2-PDC, and 519858-162-T-J1-PDC; three pancreatic carcinomas: 323965-272-R-J2-PDC, 521955-158-R6-J3-PDC, and 521955-158-R2-J5-PDC; two uterine sarcomas: 327498-152-R-J2-PDC and 993429-296-R-J1-PDC; two rhabdomyosarcomas: 755483-174-R-J1-PDC and 772245-204-R-J1-PDC; two soft tissue sarcomas: 126254-015-R-J1-PDC and 494315-158-R-J1-PDC; two malignant fibrous histiocytomas: 317291-083-R-J1-PDC and 596521-263-R-J1-PDC; two breast carcinomas: 171881-019-R-J1-PDC and 885512-296-R-J2-PDC; and one ovarian carcinoma: 6556581-035-R-J-PDC were obtained from the NCI PDMR, (https://pdmr.cancer.gov). The established cell lines HSSY-2 synovial sarcoma (RRID:CVCL 8719), SYO-1 synovial sarcoma (RRID:CVCL_7146), MPNST malignant peripheral neural sheath tumor were obtained from the Sloan Kettering Institute. The following established cell lines were purchased from the American Type Culture Collection (ATCC, Manassas, VA), Sor the received from the NCI repository:, PANC-1 pancreatic carcinoma (CRL-1469, RRID:CVCL_0480), OVCAR-5 ovarian carcinoma (RRID:CVCL_1628), OVCAR-8 ovarian carcinoma (RRID:CVCL_1629), , MCF-7 breast carcinoma (CRL-12584, RRID:CVCL_0031), MDA-MB-231 breast carcinoma (CRL-12532, RRID:CVCL_0062), NCI-H1876 small cell lung carcinoma (CRL-5902, RRID:CVCL_1503), NCI-H510A small cell lung carcinoma (HTB-184, RRID:CVCL_1565), NCI-H1417 (CRL-5869, RRID:CVCL_1469), and NCI-H196 small cell lung carcinoma (CRL-5823, RRID:CVCL_1509). Dr. Peter Houghton (Greehey Children's Cancer Research Institute, University of Texas Health Science Center, San Antonio, TX) provided Rh-18 rhabdomyosarcoma (RRID:CVCL_1659). Pooled donor human umbilical vein endothelial cells (HUVEC, Lonza, cat. CC-2519) and human mesenchymal stem cells (hMSC, Lonza, cat. PT-2501) were purchased from Lonza (Walkersville, MD).
Cell Culture. […]

Several values for one entry are separate records, joined by “and”; a condition that tells them apart may be missing. Identical values can stand only once. Bounds are passed on as bounds.
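Also: spheroids exposed to compounds for seven days before readout.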

Regarding `C#Cc1c(F)ccc2cc(O)cc(-c3ncc4c(N5CC6CCC(C5)N6)nc(OCC56CCCN5CC(F)C6)nc4c3F)c12` (centres undefined), the viability, T/C runs as follows: (compound 0.0316 µM) 97.7% and 125% and 101%; (compound 0.1 µM) 114% and 91.6% and 119%; (compound 0.316 µM) 92.6% and 113% and 90.3%; (compound 1 µM) 117% and 100% and 127%; (compound 3.16 µM) 85.7% and 76.6% and 92.3%; (compound 10 µM) 31.7% and 34.9% and 58.8%. Moreover, the IC50 (curve of compound) was 6.77 µM and 6.63 µM and > 10 µM.
Turning to `C=C(F)C(=O)N1CCN(c2nc(OCC3CCCN3C)nc3c2CCN(c2cccc4cccc(Cl)c24)C3)CC1CC#N` (centres undefined), the viability, T/C is 95.7% and 76.6% and 114% (compound 0.0316 µM); 91% and 57% and 109% (compound 0.1 µM); 95% and 99.3% and 78.9% (compound 0.316 µM); 80.1% and 74.6% and 88.8% (compound 1 µM); 21.4% and 23.7% and 19.3% (compound 3.16 µM); 0.14% and 0.16% and 0.18% (compound 10 µM). For the same molecule, the IC50 (curve of compound) is 1.81 µM and 1.76 µM and 1.88 µM.
For `C=CC(=O)N1CCN(c2nc(=O)n(-c3c(C)ccnc3C(C)C)c3nc(-c4c(O)cccc4F)c(F)cc23)C(C)C1` (centres undefined), the viability, T/C (compound 0.0316 µM) is 99.7% and 81.3% and 102%; the viability, T/C (compound 0.1 µM) is 98.4% and 72.6% and 109%; the viability, T/C (compound 0.316 µM) was 115% and 63% and 100%; the viability, T/C (compound 1 µM) is 94.8% and 72.7% and 121%; the viability, T/C (compound 3.16 µM) is 117% and 78.5% and 88.8%; the viability, T/C (compound 10 µM) is 74.8% and 69.6% and 85.6%. Moreover, for the setting “curve of compound”, the IC50 is greater than 10 µM.
With `CCN1C(C(=O)NC23CCC(C(=O)O)(CC2)CC3)C(c2cccc(Cl)c2F)C2(C(=O)Nc3cc(Cl)ccc32)C12CCCCC2` (centres undefined), the viability, T/C (compound 0.00949 µM) was 92.3% and 75.3%. Also, the IC50 by setting is: (compound alone, run of 09/27/2022) greater than 3 µM; (curve of compound) greater than 3 µM.
Regarding `CCN1CCN(Cc2ccc(Nc3ncc(F)c(-c4cc(F)c5nc(C)n(C(C)C)c5c4)n3)nc2)CC1`, the viability, T/C reads like this: (compound 0.00316 µM) 112% and 99% and 77.5%; (compound 0.01 µM) 85.6% and 83.7% and 100%; (compound 0.0316 µM) 119% and 93.6% and 74.1%; (compound 0.1 µM) 120% and 83.7% and 118%; (compound 0.316 µM) 115% and 99.3% and 99.2%; (compound 1 µM) 113% and 132% and 99%. Besides, under “curve of compound”, the IC50 was greater than 1 µM.
With `CNC(C)C(=O)NC1CN(S(=O)(=O)c2cccc(S(=O)(=O)N3CCC4CCC(C(=O)NC(c5ccccc5)c5ccccc5)N4C(=O)C(NC(=O)C(C)NC)C3)c2)CCC2CCC(C(=O)NC(c3ccccc3)c3ccccc3)N2C1=O` (centres undefined), the viability, T/C is 48.1% and 88.5% (compound 0.00316 µM); 37.5% [middle of 15 runs] (compound 0.1 µM). Also, for the setting “curve of compound”, the concentration for half-maximal inhibition (IC50) was < 0.00316 µM and 0.023 µM.
On to `COc1c(OCCCN2CCOCC2)ccc2c3n(c(=NC(=O)c4cnc(N)nc4)nc12)CCN3`, for which the viability, T/C runs as follows: (compound 0.00316 µM) 81.5% and 75.7% and 125%; (compound 0.01 µM) 68.4% and 71.7% and 105%; (compound 0.0316 µM) 48.4% and 58.9% and 88.5%; (compound 0.1 µM) 32.9% and 32.1% and 51.3%; (compound 0.316 µM) 11.3% and 12% and 19.7%; (compound 1 µM) 5.83% and 6.96% and 8.42%. Also, where the note is “curve of compound”, the IC50 was 0.0313 µM and 0.0462 µM and 0.104 µM.
With `Cc1c(S(C)(=O)=O)c(-c2cc(F)cc(N3CCN(c4ccc(NS(=O)(=O)c5ccc(NC(CCN6CCC(C(=O)OCCCP(=O)(O)O)CC6)CSc6ccccc6)c(S(=O)(=O)C(F)(F)F)c5)cc4)CC3)c2)c(-c2ccc(Cl)cc2)n1C(C)C` (centres undefined), under “compound 10 µM”, the viability, T/C was 41.7% [middle of 14 runs].
Turning to `Cc1nc(N2CCC3(CC2)COC(C)C3N)c(CO)nc1Sc1ccnc(N)c1Cl` (centres undefined), the viability, T/C reads like this: (compound 0.00949 µM) 92.6% and 79% and 106%; (compound 0.03 µM) 82.3% and 110% and 95.9%; (compound 0.0949 µM) 82.2% and 74.3% and 36.2%; (compound 0.3 µM) 47.3% and 50.9% and 53.9%; (compound 0.949 µM) 31.6% and 34.4% and 28.9%; (compound 3 µM) 22.1% and 20.2% and 18.8%. For the same molecule, the concentration for half-maximal inhibition (IC50) (curve of compound) is 0.291 µM and 0.325 µM and 0.073 µM.
In the case of `Cn1ncnc1[C@H]1c2n[nH]c(=O)c3cc(F)cc(c23)N[C@@H]1c1ccc(F)cc1`, the viability, T/C is, setting by setting: (compound 0.000316 µM) 88.4% and 89% and 81.2%; (compound 0.001 µM) 83.4% and 79.9% and 66.1%; (compound 0.00316 µM) 84.2% and 86.5% and 53.9%; (compound 0.01 µM) 74.4% and 58.5% and 52.2%; (compound 0.0316 µM) 50.1% and 45.9% and 31.2%; (compound 0.1 µM) 41.2% and 38.3% and 23.1%. The IC50 (curve of compound) was 0.0327 µM and 0.0181 µM and 0.00639 µM.
For the molecule `NC(=O)C(=Cn1cnc(-c2cc(C(F)(F)F)cc(C(F)(F)F)c2)n1)c1cncnc1`, the viability, T/C was 83.4% and 72.6% and 109% (compound 0.000949 µM); 79.3% and 74.5% and 76.7% (compound 0.003 µM); 31.9% and 25.1% and 35.4% (compound 0.00949 µM); 12.6% and 12.7% and 19.2% (compound 0.03 µM); 8.9% and 7.51% and 9.5% (compound 0.0949 µM); 9.16% and 4.1% and 26.1% (compound 0.3 µM). In addition, the half-inhibitory concentration (IC50) (curve of compound) was 0.00611 µM and 0.00525 µM and 0.00623 µM.
Take `NC1CCC(NC2CC2c2ccccc2)CC1` (centres undefined): the viability, T/C was 90.9% and 70.4% and 80.8% (compound 0.000316 µM); 80.2% and 77.2% and 82.2% (compound 0.001 µM); 77.8% and 102% and 61.7% (compound 0.00316 µM); 82.8% and 87.8% and 74.4% (compound 0.01 µM); 68.1% and 94.5% and 113% (compound 0.0316 µM); 79.2% and 83.4% and 66.6% (compound 0.1 µM). Besides, where the note is “curve of compound”, the IC50 was greater than 0.1 µM.
As for `O=C(c1cc(Cc2n[nH]c(=O)c3ccccc23)ccc1F)N1CCN(C(=O)C2CC2)CC1`, the viability, T/C (compound 0.0316 µM) was 81.5% and 67.3% and 77.6%; the viability, T/C (compound 0.1 µM) was 57.5% and 87% and 85.7%; the viability, T/C (compound 0.316 µM) is 70.2% and 82% and 67.8%; the viability, T/C (compound 1 µM) was 41.8% and 56.8% and 65.6%; the viability, T/C (compound 3.16 µM) was 32.3% and 51.1% and 43.3%; the viability, T/C (compound 10 µM) was 30.1% and 17.6% and 22.7%. The IC50 (curve of compound) is 0.713 µM and 2.73 µM and 2.21 µM.
Turning to `O=C(c1ccc(F)c(F)c1Nc1ccc(I)cc1F)N1CC(O)([C@@H]2CCCCN2)C1`, the viability, T/C was 109% and 82.3% and 101% (compound 0.00316 µM); 117% and 73.6% and 104% (compound 0.01 µM); 96.3% and 99.1% and 95.6% (compound 0.0316 µM); 91.4% and 70.1% and 93.1% (compound 0.1 µM); 53.5% and 61.5% and 60.8% (compound 0.316 µM); 18.9% and 14.9% and 13.3% (compound 1 µM). In addition, under “curve of compound”, the IC50 is 0.369 µM and 0.409 µM and 0.413 µM.
